# Laboratory results: patent CN105311047A, “一种替米考星药物包合物及其制备和应用” (Luoyang Huizhong Animal Medicine Co Ltd, priority 2014, dated 2016)
# Test: In vitro sustained-release test (dialysis bag, phosphate buffer, UV 287 nm)
# Assay type: physicochemical
# Conditions: after 24 h (24h以后); phosphate buffer pH 6.86, 37±0.5 ℃, 100 r/min
compound,measurement,value
"CC[C@H]1OC(=O)C[C@@H](O)[C@H](C)[C@@H](O[C@@H]2O[C@H](C)[C@@H](O)[C@H](N(C)C)[C@H]2O)[C@@H](CCN2C[C@H](C)C[C@H](C)C2)C[C@@H](C)C(=O)/C=C/C(C)=C/[C@@H]1CO[C@@H]1O[C@H](C)[C@@H](O)[C@@H](OC)[C@H]1OC [替米考星原粉, 替米考星]",release rate,> 95%
